Columns and labels:
[1] = target: Carbonic anhydrase 4 (Homo sapiens, UniProt P22748)
[2] = target: Carbonic anhydrase 13 (Mus musculus, UniProt Q9D6N1)
[3] = target: Carbonic anhydrase 3 (Homo sapiens, UniProt P07451)
[4] = target: Carbonic anhydrase 5A, mitochondrial (Homo sapiens, UniProt P35218)
[5] = target: Carbonic anhydrase 5B, mitochondrial (Homo sapiens, UniProt Q9Y2D0)
[6] = target: Carbonic anhydrase 14 (Homo sapiens, UniProt Q9ULX7)
Carbonic anhydrase 14, sequence (Q9ULX7 whole entry): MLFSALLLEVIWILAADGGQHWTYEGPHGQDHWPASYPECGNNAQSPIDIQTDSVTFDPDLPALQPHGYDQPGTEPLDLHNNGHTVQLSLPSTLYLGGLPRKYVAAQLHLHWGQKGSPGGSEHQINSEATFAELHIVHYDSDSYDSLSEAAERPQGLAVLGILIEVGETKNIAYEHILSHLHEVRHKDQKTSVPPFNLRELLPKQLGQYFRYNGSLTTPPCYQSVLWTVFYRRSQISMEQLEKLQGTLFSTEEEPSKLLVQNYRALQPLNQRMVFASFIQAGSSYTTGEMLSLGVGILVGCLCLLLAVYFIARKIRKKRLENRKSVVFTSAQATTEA

Carbonic anhydrase 13, sequence (Q9D6N1 whole entry): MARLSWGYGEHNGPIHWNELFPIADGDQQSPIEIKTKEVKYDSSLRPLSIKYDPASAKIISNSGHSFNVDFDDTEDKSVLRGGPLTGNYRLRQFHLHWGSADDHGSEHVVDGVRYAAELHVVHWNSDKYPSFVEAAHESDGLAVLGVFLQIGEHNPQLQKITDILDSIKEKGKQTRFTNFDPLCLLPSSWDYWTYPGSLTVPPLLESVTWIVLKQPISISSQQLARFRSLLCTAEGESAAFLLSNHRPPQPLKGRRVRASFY
Carbonic anhydrase 4, sequence (P22748 whole entry): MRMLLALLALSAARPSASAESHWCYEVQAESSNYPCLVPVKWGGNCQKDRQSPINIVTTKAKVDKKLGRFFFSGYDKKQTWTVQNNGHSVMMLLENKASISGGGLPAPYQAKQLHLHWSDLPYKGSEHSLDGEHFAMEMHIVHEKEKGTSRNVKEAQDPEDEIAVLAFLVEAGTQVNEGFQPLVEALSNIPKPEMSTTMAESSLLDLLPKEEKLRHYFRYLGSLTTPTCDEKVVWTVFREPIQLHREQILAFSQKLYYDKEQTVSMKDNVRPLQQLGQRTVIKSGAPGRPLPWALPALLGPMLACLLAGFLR
Carbonic anhydrase 5B, mitochondrial, sequence (Q9Y2D0 whole entry): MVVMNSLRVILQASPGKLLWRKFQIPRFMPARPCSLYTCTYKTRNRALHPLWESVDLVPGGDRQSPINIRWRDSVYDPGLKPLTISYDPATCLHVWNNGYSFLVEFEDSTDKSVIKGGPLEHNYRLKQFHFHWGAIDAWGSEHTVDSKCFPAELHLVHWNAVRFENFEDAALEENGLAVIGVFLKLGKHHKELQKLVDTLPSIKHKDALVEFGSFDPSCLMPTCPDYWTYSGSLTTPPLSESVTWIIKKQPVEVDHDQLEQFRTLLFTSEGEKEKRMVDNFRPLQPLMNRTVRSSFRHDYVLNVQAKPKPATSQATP
Carbonic anhydrase 3, sequence (P07451 whole entry): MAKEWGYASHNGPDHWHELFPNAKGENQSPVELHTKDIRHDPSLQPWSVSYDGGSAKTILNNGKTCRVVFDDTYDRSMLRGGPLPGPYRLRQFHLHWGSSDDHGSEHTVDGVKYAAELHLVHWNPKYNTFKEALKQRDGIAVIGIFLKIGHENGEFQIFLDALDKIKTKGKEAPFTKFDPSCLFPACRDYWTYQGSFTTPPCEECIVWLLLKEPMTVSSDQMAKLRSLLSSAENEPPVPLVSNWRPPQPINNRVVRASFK
Carbonic anhydrase 5A, mitochondrial, sequence (P35218 whole entry): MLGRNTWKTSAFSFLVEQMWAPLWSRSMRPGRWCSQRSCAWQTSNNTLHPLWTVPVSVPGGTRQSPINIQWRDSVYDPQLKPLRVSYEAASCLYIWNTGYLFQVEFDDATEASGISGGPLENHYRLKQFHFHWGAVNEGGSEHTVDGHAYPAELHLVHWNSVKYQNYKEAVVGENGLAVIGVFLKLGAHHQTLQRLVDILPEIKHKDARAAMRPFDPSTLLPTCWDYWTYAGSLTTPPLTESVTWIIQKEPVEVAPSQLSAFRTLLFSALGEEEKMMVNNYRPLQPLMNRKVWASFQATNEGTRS

Compound | Ki [1] [nM] | Ki [2] [nM] | Ki [3] [nM] | Ki [4] [nM] | Ki [5] [nM] | Ki [6] [nM]
CCNC1CN(CCCOC)S(=O)(=O)c2sc(S(N)(=O)=O)cc21 (single isomer, unassigned) [BRINZOLAMIDE] | 3950 | 10 |  |  |  | 
NS(=O)(=O)c1cc(Cl)c(Cl)c(S(N)(=O)=O)c1 [DICHLORPHENAMIDE] |  | 1450 | 630000 | 81 | 91 | 1540

From ChEMBL document CHEMBL1144732 (Bioorg Med Chem Lett, 2008)
